From patent US7420001B2 (Wyeth, priority 2003, dated 2008)
Read-outs that look alike come from different tables or passages of the source.

Experiments:
[1] = molecular target: T1, MMP-2 (Homo sapiens, UniProt P08253); assay: In-vitro fluorescence assay of MMP-2 activity; format: biochemical; details: recombinant human MMP-2; read-out: MMP-2 IC50
T1 construct: purchased Oncogene Research Products (Calbiochem) PF023
T1 sequence (P08253 110-660): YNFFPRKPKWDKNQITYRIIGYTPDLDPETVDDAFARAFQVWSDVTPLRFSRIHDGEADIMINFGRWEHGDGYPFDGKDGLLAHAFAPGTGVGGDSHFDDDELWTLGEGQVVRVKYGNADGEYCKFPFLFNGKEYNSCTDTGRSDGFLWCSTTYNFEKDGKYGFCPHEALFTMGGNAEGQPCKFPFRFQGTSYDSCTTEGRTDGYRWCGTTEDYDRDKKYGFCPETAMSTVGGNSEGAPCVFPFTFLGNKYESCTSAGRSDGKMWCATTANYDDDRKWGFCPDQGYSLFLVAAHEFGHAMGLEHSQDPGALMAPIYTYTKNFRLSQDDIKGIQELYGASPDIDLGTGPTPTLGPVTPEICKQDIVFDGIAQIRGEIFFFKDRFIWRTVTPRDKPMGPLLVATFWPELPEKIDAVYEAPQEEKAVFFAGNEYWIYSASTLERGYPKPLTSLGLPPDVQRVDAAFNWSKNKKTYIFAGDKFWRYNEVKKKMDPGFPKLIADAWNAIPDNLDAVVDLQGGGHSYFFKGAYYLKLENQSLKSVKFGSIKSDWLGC

[2] = molecular target: T2, MMP-13 (Homo sapiens, UniProt P45452); assay: In-vitro fluorescence assay of MMP-13 activity; format: biochemical
T2 construct: made in house

[3] = recombinant human catalytic domain of MMP-13, read-out: MMP-13 IC50
[4] = MMP-13 IC50, recombinant human catalytic domain of MMP-13

| IC50 [1] [nM] | IC50 [2, 3] [nM] | IC50 [2, 4] [nM] | Structure (SMILES) |
| --- | --- | --- | --- |
| 2670 | 8.5 | – | Cc1c(C(=O)Nc2ccc(-c3ccc(S(=O)(=O)N[C@H](C(=O)O)C(C)C)cc3)cc2)oc2cccc(-c3ccncc3)c12 [Example 112, (S)-3-Methyl-2-{4′-[(3-methyl-4-pyridin-4-yl-benzofuran-2-carbonyl)-amino]-biphenyl-4-sulfonylamino}-butyric acid] |
| 2060 | – | 6.4 | Cc1c(C(=O)Nc2ccc(-c3ccc(S(=O)(=O)N[C@H](C(=O)O)C(C)C)cc3)cc2)oc2cccc(-c3ccoc3)c12 [Example 113, (S)-2-{4′-[(4-Furan-3-yl-3-methyl-benzofuran-2-carbonyl)-amino]-biphenyl-4-sulfonylamino}-3-methyl-butyric acid] |
| 1630 | – | 32 | Cc1c(C(=O)Nc2ccc(-c3ccc(S(=O)(=O)N[C@H](C(=O)O)C(C)C)cc3)cc2)oc2cccc(N3CCOCC3)c12 [Example 114, (S)-3-methyl-2-{4′-[(3-methyl-4-morpholin-4-yl-benzofuran-2-carbonyl)-amino]-biphenyl-4-sulfonylamino}-butyric acid] |
| 20000 | 199 | – | COc1c(Cl)cc(Cl)c2oc(C(=O)Nc3ccc(-c4ccc(S(=O)(=O)N[C@H](C(=O)O)C(C)C)cc4)cc3)c(C)c12 [Example 117, (S)-2-{4′-[(5,7-Dichloro-4-methoxy-3-methyl-benzofuran-2-carbonyl)-amino]-biphenyl-4-sulfonylamino}-3-methyl-butyric acid] |
| 47 | 0.8 | – | CC(C)[C@H](NS(=O)(=O)c1ccc(-c2ccc(NC(=O)c3nc4ccccc4o3)cc2)cc1)C(=O)O [Example 127, (S)-3-Methyl-2-{4′-[(benzooxazole-2-carbonyl)-amino]-biphenyl-4-sulfonylamino}-butyric acid] |
| 59.5 | 2.8 | – | Cc1cccc2oc(C(=O)Nc3ccc(-c4ccc(S(=O)(=O)N[C@H](C(=O)O)C(C)C)cc4)cc3)nc12 [Example 128, (S)-3-Methyl-2-{4′-[(4-methyl-benzooxazole-2-carbonyl)-amino]-biphenyl-4-sulfonylamino}-butyric acid] |
| 25.9 | 2 | – | CC(C)[C@H](NS(=O)(=O)c1ccc(-c2ccc(NC(=O)c3nc4cc(Cl)ccc4s3)cc2)cc1)C(=O)O [Example 130, (S)-3-Methyl-2-{4′-[(5-chloro-benzothiazole-2-carbonyl)-amino]-biphenyl-4-sulfonylamino}-butyric acid] |
| 149 | 17 | – | CC(C)[C@H](NS(=O)(=O)c1ccc(-c2ccc(NC(=O)c3nc4cc(C(F)(F)F)ccc4s3)cc2)cc1)C(=O)O [Example 131, (S)-3-Methyl-2-{4′-[(5-trifluoromethyl-benzothiazole-2-carbonyl)-amino]-biphenyl-4-sulfonylamino}-butyric acid] |
| 1120 | 89.3 | – | CC(C)[C@@H](NS(=O)(=O)c1ccc(-c2ccc(OCc3nc4ccccc4n3C)cc2)cc1)C(=O)O [Example 138, D-3-Methyl-2-[4′-(1-methyl-1H-benzoimidazol-2-ylmethoxy)-biphenyl-4-sulfonylamino]-butyric acid] |
| 130 | 2.1 | – | COc1c(Cl)ccc2oc(COc3ccc(-c4ccc(S(=O)(=O)N[C@H](C(=O)O)C(C)C)cc4)cc3)c(C)c12 [Example 142, L-2-[4′-(5-Chloro-4-methoxy-3-methylbenzofuran-2-ylmethoxy)-biphenyl-4-sulfonylamino]-3-methyl butyric acid] |
| 64 | 1.2 | – | COc1c(C#N)ccc2oc(COc3ccc(-c4ccc(S(=O)(=O)N[C@H](C(=O)O)C(C)C)cc4)cc3)c(C)c12 [Example 143, L-2-[4′-(5-Cyano-4-methoxy-3-methylbenzofuran-2-ylmethoxy)-biphenyl-4-sulfonylamino]-3-methyl butyric acid] |
| 207 | 1.2 | – | CCc1cccc2oc(COc3ccc(-c4ccc(S(=O)(=O)N[C@H](C(=O)O)C(C)C)cc4)cc3)c(C)c12 [Example 146, L-2-[4′-(4-Ethyl-3-methylbenzofuran-2-ylmethoxy)-biphenyl-4-sulfonylamino]-3-methyl butyric acid] |
| 375 | 7.9 | – | Cc1c(COc2ccc(-c3ccc(S(=O)(=O)N[C@@H](C(=O)O)C(C)C)cc3)cc2)oc2ccc(Br)c(OC(C)C)c12 [Example 149, N-({4′-[(5-Bromo-4-isopropoxy-3-methyl-1-benzofuran-2-yl)methoxy]-1,1′-biphenyl-4-yl}sulfonyl)-D-valine] |
| 198 | 8.1 | – | COc1c(Br)ccc2oc(CNc3ccc(-c4ccc(S(=O)(=O)N[C@H](C(=O)O)C(C)C)cc4)cc3)c(C)c12 [Example 150, N-[(4′-{[(5-bromo-4-methoxy-3-methyl-1-benzofuran-2-yl)methyl]amino}-1,1′-biphenyl-4-yl)sulfonyl]-L-valine] |
| 60 | 1.7 | – | Cc1c(C(=O)Nc2ccc(-c3ccc(S(=O)(=O)N[C@H](C(=O)O)C(C)C)cc3)cc2)oc2ccc3ccccc3c12 [Example 154, L-3-Methyl-2-{4′-[(1-methyl-naphtho[2,1-b]furan-2-carbonyl)-amino]-biphenyl-4-sulfonylamino}-butyric acid] |
| 6200 | 25 | – | COC(=O)C(C)(C)Oc1cccc2oc(C(=O)Nc3ccc(-c4ccc(S(=O)(=O)N[C@H](C(=O)O)C(C)C)cc4)cc3)c(C)c12 [Example 156, L-2-(4′-{[4-(1-Methoxycarbonyl-1-methyl-ethoxy)-3-methyl-benzofuran-2-carbonyl]-amino}-biphenyl-4-sulfonylamino)-3-methyl-butyric acid] |
| 2050 | 8.8 | – | CCOC(=O)COc1cccc2oc(C(=O)Nc3ccc(-c4ccc(S(=O)(=O)N[C@H](C(=O)O)C(C)C)cc4)cc3)c(C)c12 [Example 157, L-2-{4′-[(4-Ethoxycarbonylmethoxy-3-methyl-benzofuran-2-carbonyl)-amino]-biphenyl-4-sulfonylamino}-3-methyl-butyric acid] |
| 1840 | 8.7 | – | COC(=O)COc1cccc2oc(C(=O)Nc3ccc(-c4ccc(S(=O)(=O)N[C@H](C(=O)O)C(C)C)cc4)cc3)c(C)c12 [Example 158, L-2-{4′-[(4-Methoxycarbonylmethoxy-3-methyl-benzofuran-2-carbonyl)-amino]-biphenyl-4-sulfonylamino}-3-methyl-butyric acid] |
| 3520 | 8.5 | – | Cc1c(C(=O)Nc2ccc(-c3ccc(S(=O)(=O)N[C@H](C(=O)O)C(C)C)cc3)cc2)oc2cccc(OCC(=O)O)c12 [Example 159, L-2-{4′-[(4-Carboxymethoxy-3-methyl-benzofuran-2-carbonyl)-amino]-biphenyl-4-sulfonylamino}-3-methyl-butyric acid] |
| 4550 | 9.5 | – | Cc1c(C(=O)Nc2ccc(-c3ccc(S(=O)(=O)N[C@H](C(=O)O)C(C)C)cc3)cc2)oc2cccc(OCc3cccnc3)c12 [Example 160, L-3-Methyl-2-(4′-{[3-methyl-4-(pyridin-3-ylmethoxy)-benzofuran-2-carbonyl]-amino}-biphenyl-4-sulfonylamino)-butyric acid] |

| Structure (SMILES) | IC50 [1] [nM] | IC50 [2, 3] [nM] | IC50 [2, 4] [nM] |
| --- | --- | --- | --- |
| Cc1c(C(=O)Nc2ccc(-c3ccc(S(=O)(=O)N[C@H](C(=O)O)C(C)C)cc3)cc2)oc2ccc(Cl)c(OC(C)C)c12 [Example 115, (S)-2-{4′-[(5-Chloro-4-isopropoxy-3-methyl-benzofuran-2-carbonyl)-amino]-biphenyl-4-sulfonylamino}-3-methyl-butyric acid] | 3010 | 11 | – |
| COc1c(I)ccc2oc(C(=O)Nc3ccc(-c4ccc(S(=O)(=O)N[C@H](C(=O)O)C(C)C)cc4)cc3)c(C)c12 [Example 120, (S)-2-{4′-[(5-Iodo-4-methoxy-3-methyl-benzofuran-2-carbonyl)-amino]-biphenyl-4-sulfonylamino}-3-methyl-butyric acid] | 1370 | 2.1 | – |
| CC(=O)c1ccc2oc(C(=O)Nc3ccc(-c4ccc(S(=O)(=O)N[C@H](C(=O)O)C(C)C)cc4)cc3)c(C)c2c1O [Example 123, (S)-2-{4′-[(5-Acetyl-4-hydroxy-3-methyl-benzofuran-2-carbonyl)-amino]-biphenyl-4-sulfonylamino}-3-methyl-butyric acid] | 63 | 3.2 | – |
| COc1c(C#N)ccc2oc(C(=O)Nc3ccc(-c4ccc(S(=O)(=O)N[C@H](C(=O)O)C(C)C)cc4)cc3)c(C)c12 [Example 124, (S)-2-{4′-[(5-Cyano-4-methoxy-3-methyl-benzofuran-2-carbonyl)-amino]-biphenyl-4-sulfonylamino}-3-methyl-butyric acid] | 522 | 3 | – |
| COc1c(C)ccc2oc(C(=O)Nc3ccc(-c4ccc(S(=O)(=O)N[C@H](C(=O)O)C(C)C)cc4)cc3)c(C)c12 [Example 125, (S)-2-{4′-[(5-Methyl-4-methoxy-3-methyl-benzofuran-2-carbonyl)-amino]-biphenyl-4-sulfonylamino}-3-methyl-butyric acid] | 1610 | 4.9 | – |
